Measurements taken from patent publication US10597388B2, “Pyridazinone herbicides” (FMC CORPORATION, priority 2014, dated 2020).

Columns and labels:
Assay type in all cases: in vivo
[1] = test system: lambsquarters (Chenopodium album); assay: Test C greenhouse herbicide test, pre- and postemergence
Description: (§1) Seeds of plant species selected from blackgrass (Alopecurus myosuroides), ryegrass, Italian (Italian ryegrass, Lolium multiflorum), wheat (winter wheat, Triticum aestivum), galium (catchweed bedstraw, Galium aparine), corn (Zea mays), large crabgrass, large (large crabgrass, Digitaria sanguinalis), foxtail, giant (giant foxtail, Setaria faberii), johnsongrass (Sorghum halepense), lambsquarters (Chenopodium album), morningglory (Ipomoea coccinea), nutsedge, yellow (yellow nutsedge, Cyperus esculentus), pigweed (Amaranthus retroflexus), ragweed (common ragweed, Ambrosia elatior), soybean (Glycine max), barnyardgrass (Echinochloa crus-galli), oilseed rape (Brassica napus), waterhemp (common waterhemp, Amaranthus rudis), and velvetleaf (Abutilon theophrasti) were planted into a blend of loam soil and sand and treated preemergence with test chemicals formulated in a non-phytotoxic solvent mixture which included a surfactant.
(§2) At the same time, plants selected from these crop and weed species and also chickweed (common chickweed, Stellaria media), kochia (Kochia scoparia), and oat, wild (wild oat, Avena fatua), were planted in pots containing Redi-Earth® planting medium (Scotts Company, 14111 Scottslawn Road, Marysville, Ohio 43041) comprising spaghnum peat moss, vermiculite, wetting agent and starter nutrients and treated with postemergence applications of test chemicals formulated in the same manner. Plants ranged in height from 2 to 18 cm (1- to 4-leaf stage) for postemergence treatments. Treated plants and controls were maintained in a greenhouse for 13 to 15 d, after which time all species were compared to controls and visually evaluated. Plant response ratings, summarized in Table C, are based on a scale of 0 to 100 where 0 is no effect and 100 is complete control. A dash (-) response means no test result.

[2] = test system: foxtail, giant (giant foxtail, Setaria faberii); assay: as above
Description: as §1, §2

[3] = test system: crabgrass, large (large crabgrass, Digitaria sanguinalis); assay: as above
Description: as §1, §2

[4] = test system: oilseed rape (Brassica napus); assay: as above
Description: as §1, §2

[5] = test system: morningglory (Ipomoea coccinea); assay: as above
Description: as §1, §2

[6] = test system: ryegrass, Italian (Italian ryegrass, Lolium multiflorum); assay: as above
Description: as §1, §2

[7] = test system: barnyardgrass (Echinochloa crus-galli); assay: as above
Description: as §1, §2

[8] = test system: johnsongrass (Sorghum halepense); assay: as above
Description: as §1, §2

[9] = test system: wheat (winter wheat, Triticum aestivum); assay: as above
Description: as §1, §2

[10] = test system: ragweed (common ragweed, Ambrosia elatior); assay: as above
Description: as §1, §2

[11] = test system: galium (catchweed bedstraw, Galium aparine); assay: as above
Description: as §1, §2

[12] = test system: galium (catchweed bedstraw, Galium aparine); assay: Test A greenhouse herbicide test, postemergence
Outline: (§3)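 Greenhouse postemergence test: formulated chemicals sprayed on one- to two-leaf plants (2 to 10 cm), grown in loam soil blended with sand. Injury assessed visually about 10 d later against untreated controls, scored 0 (no effect) to 100 (complete control).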

[13] = test system: blackgrass (Alopecurus myosuroides); assay: Test A greenhouse herbicide test, postemergence
Outline: as §3

[14] = Postemergence, 31 g ai/ha, 0 to 100 scale (0 no effect, 100 complete control)
[15] = Postemergence, 125 g ai/ha, scale 0 to 100, 0 is no effect, 100 is complete control
[16] = Postemergence, 250 g ai/ha, scale 0 to 100, 0 no effect, 100 complete control, 13 to 15 d
[17] = Preemergence, 31 g ai/ha, scale 0 to 100, 0 is no effect, 100 is complete control
[18] = Preemergence, 62 g ai/ha, scale 0 to 100, 0 is no effect, 100 is complete control
[19] = Preemergence, 125 g ai/ha, scale 0 to 100, 0 is no effect, 100 is complete control
[20] = Preemergence, 250 g ai/ha, scale 0 to 100, 0 no effect, 100 complete control
[21] = postemergence, 62 g ai/ha, scale 0 to 100, 0 no effect, 100 complete control
[22] = 125 g ai/ha, visual rating after approx. 10 d, 0 to 100 scale (0 no effect, 100 complete control)
[23] = 500 g ai/ha, 0 to 100 scale, 0 is no effect, 100 is complete control

Cn1nc(Br)c(O)c(-c2cccc3ccccc23)c1=O [Compound 20]
40: Blackgrass plant response rating [13, 23]
35: Plant response rating, Wheat [9, 19] | Plant response rating, Ragweed [10, 17]
0: Foxtail, Giant plant response rating [2, 14] | Oilseed Rape plant response rating [4, 14] | Plant response rating, Oilseed Rape [4, 17] | Plant response rating, Oilseed Rape [4, 18] | Plant response rating, Oilseed Rape [4, 19] | Oilseed Rape plant response rating [4, 21] | Plant response rating, Johnsongrass [8, 17] | Plant response rating, Johnsongrass [8, 18] | Plant response rating, Johnsongrass [8, 19] | Wheat plant response rating [9, 14] | Plant response rating, Wheat [9, 15] | Plant response rating, Wheat [9, 16] | Plant response rating, Wheat [9, 18] | Wheat plant response rating [9, 21]
10: Plant response rating, Crabgrass, Large [3, 15] | Plant response rating, Crabgrass, Large [3, 17] | Crabgrass, Large plant response rating [3, 21] | Barnyardgrass plant response rating [7, 21] | Plant response rating, Johnsongrass [8, 15] | Plant response rating, Johnsongrass [8, 16] | Johnsongrass plant response rating [8, 20] | Johnsongrass plant response rating [8, 21]
98: Plant response rating, Morningglory [5, 18] | Plant response rating, Morningglory [5, 19] | Galium plant response rating [11, 14]
85: Plant response rating, Lambsquarters [1, 18] | Plant response rating, Lambsquarters [1, 19] | Lambsquarters plant response rating [1, 21] | Foxtail, Giant plant response rating [2, 20] | Plant response rating, Morningglory [5, 17] | Barnyardgrass plant response rating [7, 20] | Ragweed plant response rating [10, 21]
30: Plant response rating, Foxtail, Giant [2, 18] | Plant response rating, Crabgrass, Large [3, 16] | Plant response rating, Barnyardgrass [7, 15] | Plant response rating, Barnyardgrass [7, 18] | Wheat plant response rating [9, 20] | Plant response rating, Blackgrass [13, 22]
65: Plant response rating, Foxtail, Giant [2, 19]
55: Ryegrass, Italian plant response rating [6, 14]
80: Lambsquarters plant response rating [1, 14] | Plant response rating, Lambsquarters [1, 17] | Plant response rating, Foxtail, Giant [2, 16] | Plant response rating, Ryegrass, Italian [6, 15] | Ragweed plant response rating [10, 14]
95: Plant response rating, Ryegrass, Italian [6, 18] | Plant response rating, Ryegrass, Italian [6, 19] | Ryegrass, Italian plant response rating [6, 20] | Plant response rating, Ragweed [10, 15] | Plant response rating, Galium [11, 19] | Galium plant response rating [11, 20]
70: Plant response rating, Ragweed [10, 19]
15: Plant response rating, Crabgrass, Large [3, 18] | Plant response rating, Crabgrass, Large [3, 19]
100: Plant response rating, Lambsquarters [1, 15] | Plant response rating, Lambsquarters [1, 16] | Morningglory plant response rating [5, 14] | Plant response rating, Morningglory [5, 15] | Plant response rating, Morningglory [5, 16] | Morningglory plant response rating [5, 20] | Morningglory plant response rating [5, 21] | Plant response rating, Ragweed [10, 16] | Plant response rating, Galium [11, 15] | Plant response rating, Galium [11, 16] | Plant response rating, Galium [11, 18] | Galium plant response rating [11, 21] | Galium plant response rating [12, 23]
45: Plant response rating, Foxtail, Giant [2, 15] | Plant response rating, Barnyardgrass [7, 16] | Plant response rating, Ragweed [10, 18]
5: Plant response rating, Foxtail, Giant [2, 17] | Crabgrass, Large plant response rating [3, 14] | Plant response rating, Oilseed Rape [4, 15] | Barnyardgrass plant response rating [7, 14] | Plant response rating, Barnyardgrass [7, 17] | Johnsongrass plant response rating [8, 14]
90: Lambsquarters plant response rating [1, 20] | Plant response rating, Ryegrass, Italian [6, 16] | Plant response rating, Galium [11, 17] | Plant response rating, Galium [12, 22]
25: Foxtail, Giant plant response rating [2, 21] | Plant response rating, Oilseed Rape [4, 16]
20: Oilseed Rape plant response rating [4, 20]
75: Plant response rating, Ryegrass, Italian [6, 17] | Ragweed plant response rating [10, 20]
60: Crabgrass, Large plant response rating [3, 20] | Ryegrass, Italian plant response rating [6, 21] | Plant response rating, Barnyardgrass [7, 19]
